Test results as given in US5217882A, “Microbial transformation process for producing antihypertensive N2 -glucuronide products” (Merck & Co., Inc., priority 1992, dated 1993).

Molecular target: T1, Angiotensin II (A II) receptor (Oryctolagus cuniculus, UniProt P34976)
T1 construct: tissue Pel-Freeze Biologicals; host or cells: rabbit aorta, membrane preparation
T1 sequence (P34976 1-359): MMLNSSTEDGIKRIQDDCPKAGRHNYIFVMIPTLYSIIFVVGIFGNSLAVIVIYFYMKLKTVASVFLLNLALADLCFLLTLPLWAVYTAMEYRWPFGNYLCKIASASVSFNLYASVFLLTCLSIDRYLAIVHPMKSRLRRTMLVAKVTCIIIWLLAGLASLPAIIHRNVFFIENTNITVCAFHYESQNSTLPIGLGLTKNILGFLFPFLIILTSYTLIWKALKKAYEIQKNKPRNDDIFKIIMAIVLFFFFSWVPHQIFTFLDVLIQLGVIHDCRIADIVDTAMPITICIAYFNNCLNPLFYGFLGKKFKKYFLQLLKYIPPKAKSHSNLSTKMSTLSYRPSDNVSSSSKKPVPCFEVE
Assay: Receptor binding assay using rabbit aortae membrane preparation ("IC50" assay; displacement of 125I-Sar1 Ile8-angiotensin II)
Settings: 37° C. for 90 minutes, read-out: inhibitory concentration (IC50) giving 50% displacement of total specifically bound 125I-Sar1 Ile8-angiotensin II
Protocol: This assay is also referred to herein as the "IC50 " assay.
Receptor binding assay using rabbit aortae membrane preparation
Three frozen rabbit aortae (obtained from Pel-Freeze Biologicals) were suspended in 5 mM Tris-0.25M Sucrose, pH 7.4 buffer (50 ml) homogenized, and then centrifuged. The mixture was filtered through a cheesecloth and the supernatant was centrifuged for 30 minutes at 20,000 rpm at 4° C. The pellet thus obtained was resuspended in 30 ml of 50 mM Tris-5 mM MgCl2 buffer containing 0.2% Bovine Serum Albumin and 0.2 mg/ml Bacitration and the suspension was used for 100 assay tubes. Samples tested for screening were done in duplicate. To the membrane preparation (0.25 ml) there was added ^125 I-Sar^1 -Ile^8 -angiotensin II [obtained from New England Nuclear] (10 ul; 20,000 cpm) with or without the test sample and the mixture was incubated at 37° C. for 90 minutes. The mixture was then diluted with ice-cold 50 mM Tris-0.9% NaCl, pH 7.4 (4 ml) and filtered through a glass fiber filter (GF/B Whatman 2.4" diameter). The filter was soaked in scintillation cocktail (10 ml) and counted for radioactivity using Packard 2660 Tricarb liquid scintillation counter. […]

IC50: < 50 µM
SMILES: CCCCc1nc(Cl)c(CO)n1Cc1ccc(-c2ccccc2-c2nnn(C3OC(C(=O)O)C(O)C(O)C3O)n2)cc1 (stereo not shown) [compound (I)]
